Source: patent US20160046618A1, “Cyclopropyl Fused Thiazin-2-Amine Compounds as Beta-Secretase Inhibitors and Methods of Use” (AMGEN INC., priority 2014, published 2016)
Where two headings read alike, the source gives them in different places.

Columns and labels:
Recombinant Cat D = Recombinant Cat D (Homo sapiens (Human), UniProt P07339); assay: In vitro enzymatic Cathepsin D (Cat D) FRET assay; format: biochemical; conditions: read-out: IC50 IP (μM) CatD
Method: In Vitro Enzymatic Cathepsin D (Cat D) FRET (Fluorescence Resonance Energy Transfer) Assay
Recombinant Cat D was expressed in CHO cells. The assay buffer for CathepsinD is 0.05 M citrate pH 3.5, 10% DMSO final, 5 mM CHAPS. […] The assays are effectively started by the addition of different FRET substrates (20 nM for Cat D) and the combination is incubated for one hour. The FRET assay is terminated with by addition of Tris buffer, which raises the pH to neutrality, and the fluorescence is determined. The FRET substrate is a peptide with commercially available fluorophore and quencher, on opposite sides of the BACE cleavage site. The Cat D substrate peptide sequence is based on sequence #1 of Table 1 from Gulnik et al. FEBS Letters v413 p 379-384 1997. Proteolytic cleavage of the FRET substrate releases quenching of fluorescence (Cat D excitation 500 nm and emission 580 nm).

human recombinant BACE1 = human recombinant BACE1 (Homo sapiens (Human), UniProt P56817); assay: In vitro enzymatic BACE1 FRET assay; format: biochemical; conditions: BACE1 FRET enzyme assay; read-out: IC50 IP (μM) BACE1 enzyme
Sequence of human recombinant BACE1 (P56817 46-501): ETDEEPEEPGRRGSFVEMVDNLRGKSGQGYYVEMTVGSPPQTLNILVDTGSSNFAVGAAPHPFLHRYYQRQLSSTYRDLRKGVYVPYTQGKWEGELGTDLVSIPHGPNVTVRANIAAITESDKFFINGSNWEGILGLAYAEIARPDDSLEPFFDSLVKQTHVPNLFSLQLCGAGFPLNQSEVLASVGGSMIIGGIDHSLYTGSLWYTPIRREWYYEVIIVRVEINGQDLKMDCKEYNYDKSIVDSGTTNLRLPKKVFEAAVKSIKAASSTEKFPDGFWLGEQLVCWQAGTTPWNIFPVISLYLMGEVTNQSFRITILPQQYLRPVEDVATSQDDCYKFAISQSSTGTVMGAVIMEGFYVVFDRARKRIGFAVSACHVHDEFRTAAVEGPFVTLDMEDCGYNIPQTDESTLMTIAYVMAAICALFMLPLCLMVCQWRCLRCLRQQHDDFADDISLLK
Method: These recombinant proteins were further purified using Ni-NTA affinity chromatography (Qiagen). […] This assay is effectively started by the addition of FRET substrate (50 nM) and the combination is incubated for one hour. The FRET assay is terminated by addition of Tris buffer, which raises the pH to neutrality, and the fluorescence is determined. The FRET substrate is a peptide with commercially available fluorophore and quencher, on opposite sides of the BACE cleavage site. Proteolytic cleavage of the FRET substrate releases quenching of fluorescence (excitation 488 nm and emission 590 nm).

[1] = system: Aβ40 in conditioned medium of cells stably expressing Amyloid Precursor Protein (APP); assay: In vitro BACE-1 cell-based assay (Aβ40 sandwich ELISA); conditions: read-out: IC50 IP (μM) BACE1 cell
Method: In Vitro BACE-1 Cell-Based Assay
The cell-based assay measures inhibition or reduction of Aβ40 in conditioned medium of test compound treated cells expressing amyloid precursor protein. Cells stably expressing Amyloid Precursor Protein (APP) were plated at a density of 40K cells/well in 96 well plates (Costar). The cells were cultivated for 24 hours at 37° C. and 5% CO2 in DMEM supplemented with 10% FBS. The test compounds were then added to cells in 10-point dose response concentrations with the starting concentration being either 100 μM or 10 μM. The compounds were diluted from stock solutions in DMSO and the final DMSO concentration of the test compounds on cells was 0.1%. After 24 h of incubation with the test compounds the supernatant conditioned media was collected and the Aβ40 levels were determined using a sandwich ELISA. The IC50 of the compound was calculated from the percent of control or percent inhibition of Aβ40 as a function of the concentration of the test compound.
The sandwich ELISA to detect Aβ40 was performed in 96 well microtiter plates, which were pre-treated with goat anti-rabbit IgG (Pierce). The capture and detecting antibody pair that were used to detect Aβ40 from cell supernatants were affinity purified pAb40 (Biosource) and biotinylated 6E10 (Signet Labs Inc.), respectively. The optimal concentration for the pAb40 antibody was 3 μg/ml in Superblock/TBS (Pierce) that was supplemented with 0.05% Tween 20 (Sigma). […] Cellular supernatants were incubated with the capture antibody for 3 h at 4° C., followed by 3 wash steps in TBS-tween (0.05%). The detecting antibody incubation was for 2 h at 4° C., again followed by the wash steps as described previously. The final readout of the ELISA is Time-Resolved Fluorescence (counts per minute) using Delfia reagents Streptavidin-Europium and Enhancement solutions (Perkin Elmer) and the Victor 2 multilabel counter (Perkin Elmer).

Sequence of Recombinant Cat D (P07339 65-412): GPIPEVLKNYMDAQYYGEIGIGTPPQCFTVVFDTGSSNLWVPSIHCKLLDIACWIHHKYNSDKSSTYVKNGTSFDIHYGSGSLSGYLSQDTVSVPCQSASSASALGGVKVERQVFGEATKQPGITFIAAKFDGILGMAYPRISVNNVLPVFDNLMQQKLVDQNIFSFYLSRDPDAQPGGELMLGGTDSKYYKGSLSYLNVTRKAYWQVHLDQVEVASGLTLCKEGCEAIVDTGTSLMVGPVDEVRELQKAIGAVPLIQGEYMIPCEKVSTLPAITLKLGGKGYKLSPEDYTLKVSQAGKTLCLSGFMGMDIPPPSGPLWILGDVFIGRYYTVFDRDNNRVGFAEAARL

IC50 (Recombinant Cat D; Cathepsin D FRET enzyme assay) [µM] | IC50 (human recombinant BACE1) [µM] | IC50 ([1]; BACE1 cell-based assay) [µM] | IC50 [1] [µM] | IC50 (Recombinant Cat D) [µM] | Compound
719 | 0.0141 | 0.00636 |  |  | COc1cnc(C(=O)Nc2cc(F)c(F)c([C@@]3(C)N=C(N)S[C@H]4C[C@H]43)c2)cn1 [Example 7, N-(3-((1S,5S,6S)-3-amino-5-methyl-2-thia-4-azabicyclo[4.1.0]hept-3-en-5-yl)-4,5-difluorophenyl)-5-methoxy-2-pyrazinecarboxamide]
366 | 0.00679 | 0.0232 |  |  | CCOC(=O)[C@]12C[C@H]1[C@@](C)(c1cc(NC(=O)c3ccc(Cl)cn3)cc(F)c1F)N=C(N)S2 [Example 9, (1S,5S,6S)-ethyl 3-amino-5-(5-(5-chloropicolinamido)-2,3-difluorophenyl)-5-methyl-2-thia-4-azabicyclo[4.1.0]hept-3-ene-1-carboxylate]
875 | 0.0145 | 0.00908 |  |  | COc1cnc(C(=O)Nc2cc(F)c(F)c([C@@]3(CF)N=C(N)S[C@H]4C[C@H]43)c2)cn1 [Example 16, N-(3-((1S,5S,6S)-3-amino-5-(fluoromethyl)-2-thia-4-azabicyclo[4.1.0]hept-3-en-5-yl)-4,5-difluorophenyl)-5-methoxy-2-pyrazinecarboxamide]
 |  |  | 0.0329 |  | C#C[C@H](C)Oc1cnc(C(=O)Nc2cc(F)c(F)c([C@@]3(C)N=C(N)S[C@@]4(CF)C[C@H]43)c2)c(C)n1 [Example 616, N-(3-((1S,5S,6S)-3-amino-1-(fluoromethyl)-5-methyl-2-thia-4-azabicyclo[4.1.0]hept-3-en-5-yl)-4,5-difluorophenyl)-3-methyl-5-(((1S)-1-methyl-2-propyn-1-yl)oxy)-2-pyrazinecarboxamide]
 |  |  | 0.0438 |  | C#C[C@H](C)Oc1cnc(C(=O)Nc2cc(F)c(F)c([C@@]3(C)N=C(N)S[C@@]4(COC)C[C@H]43)c2)c(C)n1 [Example 622, N-(3-((1S,5S,6S)-3-amino-1-(methoxymethyl)-5-methyl-2-thia-4-azabicyclo[4.1.0]hept-3-en-5-yl)-4,5-difluorophenyl)-3-methyl-5-(((1S)-1-methyl-2-propyn-1-yl)oxy)-2-pyrazinecarboxamide]
 |  |  | 0.222 |  | C#C[C@H](C)Oc1cnc(C(=O)Nc2ccc(F)c([C@@]3(C)N=C(N)S[C@@]4(C(F)F)C[C@@H]34)c2)c(C)c1 [Example 648, N-(3-((1S,5S,6S)-3-amino-1-(difluoromethyl)-5-methyl-2-thia-4-azabicyclo[4.1.0]hept-3-en-5-yl)-4-fluorophenyl)-3-methyl-5-(((1S)-1-methyl-2-propyn-1-yl)oxy)-2-pyridinecarboxamide]
 |  |  | 0.000378 |  | C#CCOc1cnc(C(=O)Nc2ccc(F)c([C@@]3(C)N=C(N)S[C@@]4(CF)C[C@H]43)c2)cn1 [Example 822, N-(3-((1S,5S,6S)-3-amino-1-(fluoromethyl)-5-methyl-2-thia-4-azabicyclo[4.1.0]hept-3-en-5-yl)-4-fluorophenyl)-5-(2-propyn-1-yloxy)-2-pyrazinecarboxamide]
 |  |  | 0.0006 |  | [2H]C([2H])(C#C)Oc1cnc(C(=O)Nc2cc(F)c(F)c([C@@]3(C)N=C(N)S[C@@]4(COC)C[C@H]43)c2)cn1 [Example 840]
 |  |  |  | 1300 | CCOc1cnc(C(=O)Nc2cc(F)c(F)c([C@@]3(C)N=C(N)S[C@@]4(COC)C[C@H]43)c2)cn1 [Example 1038, N-(3-((1S,5S,6S)-3-amino-1-(methoxymethyl)-5-methyl-2-thia-4-azabicyclo[4.1.0]hept-3-en-5-yl)-4,5-difluorophenyl)-5-ethoxy-2-pyrazinecarboxamide]
 |  |  | 0.1 |  | C=CC(C)Oc1cnc(C(=O)Nc2ccc(F)c([C@@]3(C)N=C(N)S[C@@]4(COC)C[C@H]43)c2)cn1 (stereo partly drawn) [Example 1063, N-(3-((1S,5S,6S)-3-amino-1-(methoxymethyl)-5-methyl-2-thia-4-azabicyclo[4.1.0]hept-3-en-5-yl)-4-fluorophenyl)-5-(but-3-en-2-yloxy)pyrazine-2-carboxamide]

Second part, the compound before the results:

Compound | IC50 (Recombinant Cat D; Cathepsin D FRET enzyme assay) [µM] | IC50 (human recombinant BACE1) [µM] | IC50 ([1]; BACE1 cell-based assay) [µM] | IC50 [1] [µM] | IC50 (Recombinant Cat D) [µM]
Cc1cc(Cl)cnc1C(=O)Nc1cc(F)c(F)c([C@@]2(C)N=C(N)S[C@H]3C[C@H]32)c1 [Example 8, N-(3-((1S,5S,6S)-3-amino-5-methyl-2-thia-4-azabicyclo[4.1.0]hept-3-en-5-yl)-4,5-difluorophenyl)-5-chloro-3-methyl-2-pyridinecarboxamide] | 418 | 0.00528 | 0.0563 |  | 
C[C@]1(c2cc(NC(=O)c3ccc(C#N)cn3)cc(F)c2F)N=C(N)S[C@H]2C[C@H]21 [Example 14, N-(3-((1S,5S,6S)-3-amino-5-methyl-2-thia-4-azabicyclo[4.1.0]hept-3-en-5-yl)-4,5-difluorophenyl)-5-cyano-2-pyridinecarboxamide] | 797 | 0.0109 | 0.00569 |  | 
Cc1cc(OC(F)F)cnc1C(=O)Nc1cc(F)c(F)c([C@@]2(C)N=C(N)S[C@H]3C[C@H]32)c1 [Example 15, N-(3-((1S,5S,6S)-3-amino-5-methyl-2-thia-4-azabicyclo[4.1.0]hept-3-en-5-yl)-4,5-difluorophenyl)-5-(difluoromethoxy)-3-methyl-2-pyridinecarboxamide] | 506 | 0.0124 | 0.00994 |  | 
COc1cnc(C(=O)Nc2cc(F)c(F)c([C@@]3(CF)N=C(N)S[C@H]4C[C@H]43)c2)c(C)n1 [Example 17, N-(3-((1S,5S,6S)-3-amino-5-(fluoromethyl)-2-thia-4-azabicyclo[4.1.0]hept-3-en-5-yl)-4,5-difluorophenyl)-5-methoxy-3-methyl-2-pyrazinecarboxamide] | 863 | 0.026 | 0.0548 |  | 
NC1=N[C@](CF)(c2cc(NC(=O)c3ccc(Cl)cn3)cc(F)c2F)[C@@H]2C[C@@H]2S1 [Example 18, N-(3-((1S,5S,6S)-3-amino-5-(fluoromethyl)-2-thia-4-azabicyclo[4.1.0]hept-3-en-5-yl)-4,5-difluorophenyl)-5-chloropicolinamide] | 34.3 | 0.0172 | 0.0169 |  | 
Cc1cc(C#N)cnc1C(=O)Nc1cc(F)c(F)c([C@@]2(C)N=C(N)S[C@H]3C[C@H]32)c1 [Example 19, N-(3-((1S,5S,6S)-3-amino-5-methyl-2-thia-4-azabicyclo[4.1.0]hept-3-en-5-yl)-4,5-difluorophenyl)-5-cyano-3-methyl-2-pyridinecarboxamide] | 669 | 0.00545 | 0.00431 |  | 
NC1=N[C@](CF)(c2cc(Nc3ncnc4cc(Cl)cnc34)cc(F)c2F)[C@@H]2C[C@@H]2S1 [Example 22, (1S,5S,6S)-5-(5-((7-Chloropyrido[3,2-d]pyrimidin-4-yl)amino)-2,3-difluorophenyl)-5-(fluoromethyl)-2-thia-4-azabicyclo[4.1.0]hept-3-en-3-amine] | 331 | 0.0149 | 0.0533 |  | 
C[C@]1(c2cc(NC(=O)c3ccc(Cl)cn3)cc(F)c2F)N=C(N)S[C@@]2(C(=O)O)C[C@H]21 [Example 899, Lithium (1S,5S,6S)-3-amino-5-(5-(5-chloropicolinamido)-2,3-difluorophenyl)-5-methyl-2-thia-4-azabicyclo[4.1.0]hept-3-ene-1-carboxylate] |  |  |  | 2.45 | 
NC1=N[C@](CF)(c2cc(Nc3nccc4nc(OCc5ncco5)cnc34)ccc2F)[C@@H]2C[C@]2(c2c[nH]nn2)S1 [Example 957, N-(3-((1S,5S,6S)-3-amino-5-(fluoromethyl)-1-(1H-1,2,3-triazol-4-yl)-2-thia-4-azabicyclo[4.1.0]hept-3-en-5-yl)-4-fluorophenyl)-2-(1,3-oxazol-2-ylmethoxy)pyrido[3,4-b]pyrazin-5-amine] |  |  |  | 0.00616 | 
